As usually defined, the Ki is the dissociation constant of the complex between target and ligand, obtained from inhibition or displacement. Broadly, the IC50 is the concentration at which inhibition is half-maximal.

The structures appear in SMILES notation.

The record followed here is patent US20060063792A1, “Substituted morphinans and methods of their use” (Adolor Corporation, priority 2004, published 2006).

The target of assay [1] is T1, μ opioid receptor (Homo sapiens, UniProt P35372).
T1 construct: expressed in transfected cells
T1 sequence (P35372 whole entry): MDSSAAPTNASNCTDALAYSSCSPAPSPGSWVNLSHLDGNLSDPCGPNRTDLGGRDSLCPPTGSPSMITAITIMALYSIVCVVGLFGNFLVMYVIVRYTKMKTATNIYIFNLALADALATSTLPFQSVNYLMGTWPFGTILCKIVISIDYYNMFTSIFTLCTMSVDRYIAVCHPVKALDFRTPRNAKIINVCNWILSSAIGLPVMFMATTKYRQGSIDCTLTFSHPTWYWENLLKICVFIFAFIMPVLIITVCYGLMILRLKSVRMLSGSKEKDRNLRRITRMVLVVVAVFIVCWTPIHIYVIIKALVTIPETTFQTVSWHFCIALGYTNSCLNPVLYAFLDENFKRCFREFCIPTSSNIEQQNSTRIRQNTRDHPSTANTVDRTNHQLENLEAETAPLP
The assay can be described thus: [3H]diprenorphine receptor binding, cloned human μ opioid receptor. As for the experimental part: The potencies of the compounds were determined by testing the ability of a range of concentrations of each compound to inhibit the binding of the non-selective opioid antagonist, [^3H]diprenorphine, to the cloned human μ, κ, and δ opioid receptors, expressed in separate cell lines. IC50 values were obtained by nonlinear analysis of the data using GraphPad Prism version 3.00 for Windows (GraphPad Software, San Diego). Ki values were obtained by Cheng-Prusoff corrections of IC50 values.
The receptor binding method (DeHaven and DeHaven-Hudkins, “Characterization of Opioid Receptors”, Current Protocols in Pharmacology (Eds. Enna S J and Williams M) 1.4.1-1.4.12, John Wiley & Sons, Inc., New York (1998)) was a modification of the method of Raynor, et al., Mol. Pharmacol. 45:330-334 (1994). After dilution in buffer A and homogenization as before, membrane proteins (10-80 μg) in 250 μL were added to mixtures containing test compound and [^3H]diprenorphine (0.5 to 1.0 nM, 40,000 to 50,000 dpm) in 250 μL of buffer A in 96-well deep-well polystyrene titer plates (Beckman). […] The filters were rinsed 4 times with 1 mL of cold 50 mM Tris HCl, pH 7.8 and radioactivity remaining on the filters determined by scintillation spectroscopy. Nonspecific binding was determined by the minimum values of the titration curves and was confirmed by separate assay wells containing 10 μM naloxone. Ki values were determined by Cheng-Prusoff corrections of IC50 values derived from nonlinear regression fits of 12 point titration curves using GraphPad Prism® version 3.00 for Windows (GraphPad Software, San Diego, Calif.).
To determine the equilibrium dissociation constant for the inhibitors (Ki), radioligand bound (cpm) in the presence of various concentrations of test compounds was measured. […] The Ki values were then determined from the […] values by the following equation, [formula] where [ligand] is the concentration of radioligand and Kd is the equilibrium dissociation constant for the radioligand.

In assay [2] the target is T1, μ opioid receptor. The assay can be described thus: Inhibition of agonist (loperamide)-stimulated [35S]GTPγS binding to membranes with cloned human μ opioid receptor. The format is biochemical. How it is done:
The potencies of the antagonists were assessed by their abilities to inhibit agonist-stimulated [^35S]GTPγS binding to membranes containing the cloned human μ, κ, or δ opioid receptors. The agonists used were loperamide for the μ opioid receptor, U50488H for the κ opioid receptor, and BW373U86 for the δ opioid receptor.
To determine the IC50 value, which was the concentration to give half-maximal inhibition of agonist-stimulated [^35S]GTPγS binding, the amount of [^35S]GTPγS bound in the presence of a fixed concentration of agonist and various concentrations of antagonist was measured. The fixed concentration of agonist was the EC80 for the agonist, which was the concentration to give 80% of the relative maximum stimulation of […] binding. The IC50 value was determined from a best nonlinear regression fit of the data to the following equation, [formula] where Y is the amount of [^35S]GTPγS bound at each concentration of antagonist, Bottom is the calculated amount of [^35S]GTPγS bound in the presence of an infinite concentration of antagonist, Top is the calculated amount of [^35S]GTPγS bound in the absence of added antagonist, X is the logarithm of the concentration of antagonist, and LogIC50 is the logarithm of the concentration of antagonist where the amount of [^35S]GTPγS bound is halfway between Bottom and Top. The nonlinear regression fit was performed using GraphPad Prism® version 3.00 for Windows (GraphPad Software, San Diego, Calif.). Mouse Gastrointestinal Transit (GIT) Assay (in vivo Assay)
A general note: Binding of GTPγS marks nucleotide exchange on a G protein.

`O=C(O)CNC(=O)/C=C1/CC[C@@]2(O)[C@H]3Cc4ccc(O)c5c4[C@@]2(CCN3CC2CC2)[C@H]1O5` [Example 33, 4,5α-Epoxy-3,14β-dihydroxy-6,6Z(N-acryloylamino-acetic acid)-17-(cyclopropylmethyl)morphinan] displayed a Ki in assay [1] of 3 nM. The IC50 in assay [2] came out at 21.3 nM.

`CC(=O)N[C@@]12CC[C@H](NCc3ccccc3)[C@@H]3Oc4c(O)ccc5c4[C@@]31CCN(CC1CC1)[C@@H]2C5` [Example 73, 4,5α-Epoxy-3-hydroxy-14β-acetylamino-6-α-benzylamino-17-(cyclopropylmethyl)morphinan] yielded a Ki in assay [1] of 2.8 nM. For the same compound, in assay [2], the IC50 turned out to be 4.2 nM.

Turning to `O=C(O)CCCC(=O)N[C@@]12CCC(=O)[C@@H]3Oc4c(O)ccc5c4[C@@]31CCN(CC1CC1)[C@@H]2C5` [Example 85], the Ki in assay [1] is 4.1 nM. In addition, in assay [2], the IC50 was 1.1 nM.
